Calls of active or inactive are those of the source. The calls are words filed in the database; no cut-off is given here.
Columns and labels:
SW480 [1] = assay: Increase in intracellular GSH levels at 50 mM expressed in […] cell line; format: functional, cell-based; conditions: Homo sapiens
F2000 = assay: LDH release per cell after 24 h with 50mM of compound F2000 fibroblasts; format: functional, Homo sapiens
SK-BR-3 = assay: LDH release per cell after 24 h with 50 mM of compound in SKBr3 cell line; format: functional, Homo sapiens
SW480 [2] = assay: Decrease in cell number against human colon carcinoma SW480 cell line at 100 mM; format: functional; parameters: scale not given: the % may be the effect or the level left
SW480 [3] = assay: Increase in intracellular GSH levels at 10mM expressed in […] cell line; format: functional, cell-based; conditions: Homo sapiens
SW480 [4] = assay: Decrease in cell number against human colon carcinoma SW480 cell line at 50 mM; format: functional; parameters: scale not given: the % may be the effect or the level left
SW480 [5] = assay: LDH release per cell after 24 h with 50 mM of compound in SW480 cell line; format: functional, Homo sapiens
SW480 [6] = assay: Decrease in intracellular GSH levels at 50 mM expressed in […] cell line; format: functional, Homo sapiens; parameters: scale not given: the % may be the effect or the level left

Question: Which results are given for `CC(C)OC(=O)C1(C)CCC=[N+]1[O-]` (configuration not stated)?
Answer: Activity (SW480 [1]): Active; Activity (F2000): 84%; Activity (SK-BR-3): 54%; Activity (SW480 [2]): <60%; Activity (SW480 [3]): Active; Activity (SW480 [4]): 10%; Activity (SW480 [5]): 78%

Question: With `CCCCOC(=O)C1(C)CCC=[N+]1[O-]` (configuration not stated) as the molecule, how does the Activity (SW480 [2]) read?
Answer: >90%

Question: What about the Activity (SW480 [4]) of the same molecule?
Answer: 10%

Question: What does the source list for `CCCOC(=O)C1(C)CCC=[N+]1[O-]` (configuration not stated)?
Answer: Activity (F2000): 105%; Activity (SK-BR-3): 60%; Activity (SW480 [6]): 38%; Activity (SW480 [2]): <60%; Activity (SW480 [3]): Active; Activity (SW480 [4]): 10%; Activity (SW480 [5]): 91%

Question: `CC(C)(C)OC(=O)C1(C)CCC=[N+]1[O-]` (configuration not stated) was tested. Which Activity (F2000) did it give?
Answer: 670%

Question: And the Activity (SK-BR-3)?
Answer: 720%

Question: What about the Activity (SW480 [2]) of the same molecule?
Answer: >90%

Question: What about the Activity (SW480 [4]) of the same molecule?
Answer: 10%

Question: What about the Activity (SW480 [5]) of the same molecule?
Answer: 1280%

Question: Which results are given for `CCC(C)OC(=O)C1(C)CCC=[N+]1[O-]` (configuration not stated)?
Answer: Activity (F2000): 1211%; Activity (SK-BR-3): 101%; Activity (SW480 [6]): 67%; Activity (SW480 [2]): >90%; Activity (SW480 [4]): 10%; Activity (SW480 [5]): 1404%

Source: ChEMBL document CHEMBL1149405, “Cytotoxicity of novel derivatives of the spin trap EMPO” (2006)
